In patent US7109170B2, “Region of factor IXa protease domain that interacts with factor VIIIa and methods therefor” (Saint Louis University, priority 1999, dated 2006):

Columns and labels:
Type in all cases: biochemical
[1] = test system: Factor IX deficient plasma; assay: coagulant activity of XIa-activated IXa proteins
factor X [2] = biological target: T1, factor X (Homo sapiens, UniProt P00742); assay: factor X activation in complete intrinsic Tenase system (IXa, Ca2+, phospholipid, VIIIa); design: Normal human plasma factor IX (IXNP) and factor X were isolated as described in Bajaj and Birktoft; from tissue; host or cells: human plasma (factor X); factor VIII obtained from Dr. Leon Hoyer, American Red Cross; details: VIIIa increased from 70 pM to 14 nM, phospholipid present
T1 sequence (P00742 183-488 limits assumed, one chain of several): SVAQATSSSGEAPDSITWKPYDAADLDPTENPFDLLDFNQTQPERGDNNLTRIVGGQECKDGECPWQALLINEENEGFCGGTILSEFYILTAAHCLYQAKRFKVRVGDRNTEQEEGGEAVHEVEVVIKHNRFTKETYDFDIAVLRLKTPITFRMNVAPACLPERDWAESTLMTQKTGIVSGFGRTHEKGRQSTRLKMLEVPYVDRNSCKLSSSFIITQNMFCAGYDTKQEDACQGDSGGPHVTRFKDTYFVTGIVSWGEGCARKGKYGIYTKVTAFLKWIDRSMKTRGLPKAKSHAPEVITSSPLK
T1 sequence (P00742 41-179 limits assumed, one chain of several): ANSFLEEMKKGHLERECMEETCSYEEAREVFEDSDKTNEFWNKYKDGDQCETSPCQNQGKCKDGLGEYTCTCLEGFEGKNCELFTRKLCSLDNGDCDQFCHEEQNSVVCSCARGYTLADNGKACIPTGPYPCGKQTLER
Experimental: (§1) The ability of each activated mutant to activate factor X in the presence and absence of phospholipid and factor VIIIa was determined as follows. The activation was carried out at 37° C. in a 50 μl reaction volume, in TBS/BSA pH 7.4, for various time periods. At the end of the incubation time period, each reaction mixture received 1 μl of 0.5 M EDTA to stop further generation of factor Xa. A 40 μL aliquot was then added to 0.1 ml quartz cuvette containing S-2222 in 75 μL of TBS/BSA, pH 7.4. The final concentration of S-2222 was 100 μM. The p-nitroaniline release was measured continuously (ΔA405/min) for up to 20 min (Sabharwal et al., 1995 supra; Sabharwal et al., 1997, supra). Factor Xa generated was calculated from a standard curve constructed using factor Xa prepared from insolubilized Russell's viper venom.
(§2) Factor X activation measurements were made under four experimental regimes. In one, Ca^2+ and phospholipid were present. In this system activation was carried out for 5–15 minutes and the concentration of each IXa protein was 20 nM, phospholipid was 25 μM, and factor X was 100 nM. In the second regime, Ca^2+, phospholipid and factor VIIIa were present. […] In the third regime, only Ca^2+ was present. Here, activation was carried out for 2–20 min and concentration of each IXa protein was 400 nM and factor X was 1 μM. Finally, in the fourth regime, Ca^2+ and VIIIa were present. Here, activation was carried out for 15–120 sec and the concentration of each IXa protein was 2 μM, VIIIa was 14 nM, and factor X was 400 nM.
(§3) In all of the above factor X activation experiments, the incubation times chosen were those in which the factor Xa generated was always less than 10 nM. This precautionary measure was taken to prevent activation of factor X by the generated factor Xa (see, e.g., Link. and Castellino, 1982, Arch Biochem. Biophys. 215, 215–221). Further, in those incubation mixtures which contained […], control experiments were also performed in which factor VIIIa was omitted. […] In the presence of factor VIIIa, 10 μM phospholipid was used based upon previous observations (Mathur et al., 1997, supra; van Dieijen et al., 1981, J. Biol. Chem. 256, 3433–3442). The concentrations of factor X selected for each set of reaction conditions are those which are below or at the Km values (van Dieijen et al., supra; Fay and Koshibu, 1998, J Biol. Chem. 273, 19049–19054). In this region of the Michaelis-Menton curve, the rate of formation of factor Xa is proportional to the substrate factor X and therefore to the affinity of the factor IXa enzyme for factor X.
Next, the activation of factor X in a complete intrinsic Tenase system (IXa, Ca^2+, phospholipid, VIIIa) was studied.

[3] = test system: Factor IX deficient plasma; assay: relative coagulant activity of factor IX proteins (zymogens); details: for relative coagulant activity: factor IX proteins before activation, IXNP = 100%
Source text: The following reagents were used. Benzoyl-Ile-Glu-Gly-Arg-p-nitroanilide (SEQ ID NO: 17) (S-2222) was purchased from Helena Laboratories. Dansyl-Glu-Gly-Arg-chloromethyl ketone (DEGR-ck) was obtained from Calbiochem. Phosphatidylcholine, phosphatidylserine, recombinant hirudin, and fatty acid free bovine serum albumin (BSA) were obtained from Sigma Chemical Co. Factor IX and factor VIII deficient plasmas were purchased from George King Biomedicals and aPTT reagent was obtained from Diagnostica Stago. Normal human plasma factor IX (IXNP) and factor X were isolated as described in Bajaj and Birktoft, 1993, Methods Enzymol. 222, 96–128, and factor Xa was prepared as described in Bajaj et al., 1981, Prep. Biochem. 11, 397–412. Purified human factor XIa, protein C, activated protein C, and α-thrombin (IIa) were purchased from Enzyme Research Laboratories (South Bend, Ind.). Recombinant human tissue factor of aa 1–243 containing the transmembrane domain was generously provided by Genentech Inc. (South San Francisco, Calif.) and reconstituted as described in Sabharwal et al., 1995, J. Biol. Chem. 270, 15523–15530. Phosphatidylcholine-phosphatidylserine vesicles (75% phosphatidylcholine, 25% phosphatidylserine) were prepared by the method of Husten et al., 1987, J. Biol. Chem. 262, 12953–12966 as outlined in Sabharwal et al (Id.). Recombinant human factor VIIa was a generous gift of Novo-Nordisk (Copenhagen). Purified human factor VIII was obtained from Dr. Leon Hoyer (American Red Cross, Rockville, Md.). The preparation was free of all other coagulation factors and contained human albumin as a stabilizing agent. Purification of a mouse monoclonal antibody (mAb) that inhibits the interaction of factor IXa with factor VIIIa was as described in Bajaj et al., 1985, J. Biol. Chem. 260:11574–11580. […]

factor VIIIa [4] = biological target: T2, factor VIIIa (Homo sapiens, UniProt P00451); assay: inhibition of Xa generation by active site-blocked (DEGR) IXa proteins, presence of phospholipid (Kd,app for VIIIa); details: presence of phospholipid
T2 construct: purchased Dr. Leon Hoyer (American Red Cross, Rockville, Md.)
T2 sequence (P00451 20-759 limits assumed): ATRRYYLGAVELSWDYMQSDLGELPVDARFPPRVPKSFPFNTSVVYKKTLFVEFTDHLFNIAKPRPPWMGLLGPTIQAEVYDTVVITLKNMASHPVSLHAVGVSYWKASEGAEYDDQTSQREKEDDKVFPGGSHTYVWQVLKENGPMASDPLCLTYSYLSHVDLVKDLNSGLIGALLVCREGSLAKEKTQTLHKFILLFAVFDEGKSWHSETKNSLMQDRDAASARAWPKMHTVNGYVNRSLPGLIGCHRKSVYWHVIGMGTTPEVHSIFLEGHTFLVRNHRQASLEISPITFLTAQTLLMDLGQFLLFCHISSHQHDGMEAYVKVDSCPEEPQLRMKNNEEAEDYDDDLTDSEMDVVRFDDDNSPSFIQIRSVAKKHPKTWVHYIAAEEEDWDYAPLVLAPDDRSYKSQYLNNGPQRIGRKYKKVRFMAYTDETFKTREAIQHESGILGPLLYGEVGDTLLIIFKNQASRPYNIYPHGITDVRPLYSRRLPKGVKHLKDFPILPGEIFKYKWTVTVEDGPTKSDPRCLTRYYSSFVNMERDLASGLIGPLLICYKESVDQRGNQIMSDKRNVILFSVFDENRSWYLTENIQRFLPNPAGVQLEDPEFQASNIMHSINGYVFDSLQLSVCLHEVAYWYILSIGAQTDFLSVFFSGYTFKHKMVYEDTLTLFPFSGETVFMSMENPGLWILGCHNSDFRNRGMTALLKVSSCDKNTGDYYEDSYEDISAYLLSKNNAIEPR
T2 sequence (P00451 1668-2351 limits assumed): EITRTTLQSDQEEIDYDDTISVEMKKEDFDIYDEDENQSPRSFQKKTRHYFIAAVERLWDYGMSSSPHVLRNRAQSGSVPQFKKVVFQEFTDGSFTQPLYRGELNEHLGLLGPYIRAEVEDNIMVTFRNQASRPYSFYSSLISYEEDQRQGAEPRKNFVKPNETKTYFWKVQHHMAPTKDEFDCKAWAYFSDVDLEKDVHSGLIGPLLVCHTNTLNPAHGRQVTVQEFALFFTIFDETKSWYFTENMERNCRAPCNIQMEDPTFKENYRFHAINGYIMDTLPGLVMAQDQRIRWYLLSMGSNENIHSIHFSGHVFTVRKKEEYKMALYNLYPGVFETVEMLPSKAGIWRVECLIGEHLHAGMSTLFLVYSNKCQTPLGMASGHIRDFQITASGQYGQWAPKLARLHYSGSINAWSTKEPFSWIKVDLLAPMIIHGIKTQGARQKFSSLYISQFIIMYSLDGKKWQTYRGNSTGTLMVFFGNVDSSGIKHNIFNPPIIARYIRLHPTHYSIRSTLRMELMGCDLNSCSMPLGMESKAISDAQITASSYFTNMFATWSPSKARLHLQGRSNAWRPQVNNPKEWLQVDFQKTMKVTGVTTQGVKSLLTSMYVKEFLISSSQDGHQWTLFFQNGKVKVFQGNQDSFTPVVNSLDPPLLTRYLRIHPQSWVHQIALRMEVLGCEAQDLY
Experimental: (§4) Apparent Kds of factor VIIIa binding to various active site-blocked factor IXa proteins were determined from inhibition experiments as detailed in Mathur et al., 1997, supra. […] Reactions were carried out for 2 min and the rates of factor X activation were measured as outlined above.
(§5) Various DEGR-ck-inhibited factor IXa proteins were prepared for these experiments as follows. IXNP, IXWT, and each mutant factor IX at 200 μg/ml was activated by factor XIa (2 μg/ml) for 90 min. in TBS, pH 7.4 (0.05 M Tris, 0.15 M NaCl, pH 7.4) containing 5 mM Ca^2+.
(§6) Enzymol. 74, 481–508 given below:
(§7) [formula] where y is the rate of Xa formation in the presence of a given concentration of DEGR-IXa protein represented by x, a is the maximum rate of Xa formation in the absence of DEGR-IXa, and s is the slope factor. Each point was weighted equally and the data were fitted to Equation 1 using the nonlinear regression analysis program obtained from Erithacus Software (GraFit). […] To obtain the Kd,app values for the interaction of DEGR-IXa proteins with factor VIIIa, the following equation was used, as described by Cheng and Prusoff, 1973, Biochem. Pharmacol. 22, 3099–3108 and further discussed by Craig, 1993, Trends Pharmacol. Sci. 6, 68–71.

factor VIIIa [5] = biological target: T2, factor VIIIa; assay: inhibition of Xa generation by active site-blocked (DEGR) IXa proteins, absence of phospholipid (Kd,app for VIIIa); details: absence of phospholipid
Experimental: as §4, §5, §6, §7

factor X [6] = biological target: T1, factor X; assay: factor X activation by IXa proteins, Ca2+ and VIIIa, no phospholipid; design: Normal human plasma factor IX (IXNP) and factor X were isolated as described in Bajaj and Birktoft; from tissue; host or cells: human plasma (factor X); factor VIII obtained from Dr. Leon Hoyer, American Red Cross; details: 14 nM VIIIa, 400 nM factor X
Experimental: as §1, §2, §3

Row | Substance | coagulant activity as compared to IXaNP [1] | relative coagulant activity [3] | further results
1 | IXaR333Q: activated factor IX mutant R333Q | ~0.6% | – | rate of factor X activation at increased VIIIa (factor X [2]): ~2.4 nM/min
2 | IXD332Y: recombinant factor IX point mutant D332Y | – | ~2% | –
3 | IXR333L: recombinant factor IX point mutant R333L | – | 0.3% | –
4 | IXL337I: recombinant factor IX point mutant L337I | – | ~1% | –
5 | IXL3301: recombinant factor IX point mutant L330I in helix-330 of protease domain | – | ~8% | –
6 | IXaL337I: activated factor IX mutant L337I | ~0.8% | – | rate of factor X activation at increased VIIIa (factor X [2]): ~3.2 nM/min
7 | IXR333Q: recombinant factor IX point mutant R333Q | – | ~0.5% | –
8 | IXaWT: factor XIa-activated recombinant wild-type factor IX [reference compound] | ~95% | – | –
9 | IXaR333L: activated factor IX mutant R333L | ~0.4% | – | rate of factor X activation at increased VIIIa (factor X [2]): ~2.7 nM/min
10 | IXNP: Normal human plasma factor IX | – | 100% | coagulant activity (specific) ([3]; plasma factor IX): 180±10 units/mg
11 | IXWT: recombinant wild-type factor IX [reference compound] | – | ~90% | –
12 | IXR338Q: recombinant factor IX point mutant R338Q | – | ~65% | –
13 | protein C: Purified human protein C, control protein [reference compound] | – | – | competition with IXa in binding to VIIIa / interaction with VIIIa (factor VIIIa [4]): neither protein C nor DEGR-activated protein C competed with IXa in binding to VIIIa; competition with IXa in binding to VIIIa / interaction with VIIIa (factor VIIIa [5]): neither protein C nor DEGR-activated protein C competed with IXa in binding to VIIIa
14 | IXaR338Q: activated factor IX mutant R338Q | ~80% | – | X-activation rate, PL-minus system (factor X [6]): 2.22 ± 0.15 nM/min
15 | IXaD332Y: activated factor IX mutant D332Y | ~2% | – | rate of factor X activation at increased VIIIa (factor X [2]): ~4.1 nM/min
16 | IXahelixVII: activated factor IX chimera with helix 330–338 replaced by factor VII residues | not measurable | – | rate of factor X activation at increased VIIIa (factor X [2]): not measurable
17 | IXT335A: recombinant factor IX point mutant T335A | – | ~40% | –
